Results taken from paper PMC4777244, “Activation of transient receptor potential ankyrin 1 induces CGRP release from spinal cord synaptosomes” (Pharmacology Research & Perspectives, 2015).
Values joined by “and” are separate entries in the source; they are usually repeats but may differ in a detail not shown here. Equal entries are not always repeated. “Also recorded” adds a separate entry of the source. Structures can show the parent of a compound that is named as a salt. Where two headings read alike, the source gives them in different places.

Tests used:
TRPA1 = biological target: T1, TRPA1 (Rattus norvegicus, UniProt Q6RI86); assay: cell-based
T1 construct: TRPA1 natively expressed on the central terminals of dorsal root ganglion neurons; from tissue; host or cells: lumbar spinal cord homogenate (synaptosomes) of adult male Sprague Dawley rats
T1 sequence (Q6RI86 whole entry): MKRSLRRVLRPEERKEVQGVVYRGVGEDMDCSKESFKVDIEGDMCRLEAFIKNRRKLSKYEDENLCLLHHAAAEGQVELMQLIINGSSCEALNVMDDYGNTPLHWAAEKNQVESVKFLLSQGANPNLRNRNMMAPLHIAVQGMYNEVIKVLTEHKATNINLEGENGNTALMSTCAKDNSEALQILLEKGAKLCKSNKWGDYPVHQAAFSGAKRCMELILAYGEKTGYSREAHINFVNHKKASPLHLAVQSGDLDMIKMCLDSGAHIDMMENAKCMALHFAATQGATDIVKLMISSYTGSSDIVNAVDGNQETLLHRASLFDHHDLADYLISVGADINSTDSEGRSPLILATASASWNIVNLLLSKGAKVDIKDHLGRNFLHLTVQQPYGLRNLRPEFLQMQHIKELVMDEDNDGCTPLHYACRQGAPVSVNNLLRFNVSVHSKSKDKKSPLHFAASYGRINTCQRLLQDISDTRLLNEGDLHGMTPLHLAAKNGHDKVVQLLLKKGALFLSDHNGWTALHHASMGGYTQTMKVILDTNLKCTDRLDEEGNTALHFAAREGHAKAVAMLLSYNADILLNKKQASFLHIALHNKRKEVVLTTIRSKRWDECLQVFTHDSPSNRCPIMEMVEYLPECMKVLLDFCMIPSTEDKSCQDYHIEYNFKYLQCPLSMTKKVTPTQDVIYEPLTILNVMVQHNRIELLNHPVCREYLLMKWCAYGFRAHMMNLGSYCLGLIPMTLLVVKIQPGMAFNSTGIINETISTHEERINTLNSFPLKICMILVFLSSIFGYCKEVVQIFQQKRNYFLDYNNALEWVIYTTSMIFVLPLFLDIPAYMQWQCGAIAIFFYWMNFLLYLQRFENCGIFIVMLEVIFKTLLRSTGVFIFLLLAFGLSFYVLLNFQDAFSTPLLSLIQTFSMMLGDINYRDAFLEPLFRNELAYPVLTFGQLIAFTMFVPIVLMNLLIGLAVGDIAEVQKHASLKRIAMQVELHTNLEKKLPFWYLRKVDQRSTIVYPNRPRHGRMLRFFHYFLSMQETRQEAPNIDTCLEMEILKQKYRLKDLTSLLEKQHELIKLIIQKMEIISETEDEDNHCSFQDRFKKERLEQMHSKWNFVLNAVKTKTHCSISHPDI

[1] = tested on: recombinantly‐expressed TRPA1 channels; conditions: cited from earlier work
TRPM3 = tested on: TRPM3; set-up: method as in Wagner et al. 2008; conditions: ref Wagner et al. 2008; read-out: EC50 for activation of TRPM3; cited from earlier work
[2] = tested on: voltage‐gated calcium channels (VGCCs); format: cell-based, rat
T‐type VGCCs = tested on: T‐type VGCCs; set-up: method as in Martin et al. 2000; conditions: ref Martin et al. 2000; cited from earlier work
[3] = tested on: voltage‐gated calcium channels (VGCCs); format: cell-based, rat; remark: listed apart in the source
spinal cord synaptosomes = assay: KCl (depolarization)-evoked CGRP release from rat spinal cord homogenate, ELISA; format: cell-based; conditions: for CGRP release over basal release: n = 3

## CCCCCC(=O)C=CC=O [4‐ONE, 4‐oxo‐2‐nonenal]
TRPA1; rat spinal cord homogenate, ELISA, mean ± SEM, read-out: EC50 of CGRP release
  EC50: 63.8 µM and ~64 µM
[1]; ref Taylor‐Clark et al. 2008, read-out: previously reported EC50 value
  EC50: ~2 µM

## COC(=O)C1=C(C)NC(C)=C(C(=O)OC)C1c1ccccc1[N+](=O)[O-] [nifedipine]
TRPM3
  EC50: ~30 µM
[1]; ref Fajardo et al. 2008, read-out: EC50 for activation of recombinantly-expressed TRPA1 channels
  EC50: ~0.4 µM

## C=CCN=C=S [AITC, allyl‐isothiocyanate]
TRPA1
  AITC-induced CGRP release: 42 ± 11 % of 40 mmol/L KCl‐evoked release

## COCC(=O)O[C@]1(CCN(C)CCCc2nc3ccccc3[nH]2)CCc2cc(F)ccc2[C@@H]1C(C)C [mibefradil dihydrochloride]
[2]; 40 mmol/L KCl, mibefradil dihydrochloride 10 μmol/L, cocktail
  decrease of high potassium-induced CGRP release: ~ 50%
[2]; nifedipine 5 μmol/L, ω‐conotoxin MVIIC 200 nmol/L, mibefradil dihydrochloride 10 μmol/L, cocktail
  effect on 40 mmol/L KCl-induced CGRP release: significantly decreased
[2]; ω‐conotoxin MVIIC 1 μmol/L, mibefradil dihydrochloride 10 μmol/L, cocktail (5 μmol/L nifedipine, 1 μmol/L ω‐conotoxin MVIIC, 10 μmol/L mibefradil)
  depolarization-induced CGRP release in the presence of inhibitor: 48 ± 6 % of control 40 mmol/L KCl‐evoked release
T‐type VGCCs
  greater affinity for T-type VGCCs than for L-type VGCC: 12–13 fold
[3]; nifedipine 5 μmol/L, mibefradil dihydrochloride 10 μmol/L, ω‐conotoxin MVIIC 200 nmol/L, ANOVA
  effect on 100 μmol/L cinnamaldehyde-induced CGRP release: not significantly altered; also recorded: not significantly affected

## CCCCCC(O)/C=C/C=O (stereo not shown) [4‐HNE, 4‐hydroxynonenal]
TRPA1; read-out: EC50 of CGRP release
  EC50: 17.4 ± 0.68 µM

## O=C/C=C/c1ccccc1 [cinnamaldehyde]
TRPA1; 100 μmol/L cinnamaldehyde, dorsal homogenate, absence of AP18
  cinnamaldehyde-evoked CGRP release: 39 ± 8 % of 40 mmol/L KCl‐evoked release
TRPA1; 100 μmol/L cinnamaldehyde, dorsal spinal cord homogenate, n = 3
  CGRP release over basal release: 14 ± 5 % over basal release
TRPA1; 100 μmol/L cinnamaldehyde, ventral spinal cord homogenate, n = 3
  CGRP release over basal release: 0 ± 1 % over basal release
TRPA1; 1000 μmol/L, Ca2+ free, 1 mmol/L EGTA, mean ± SEM, n = 3
  response to 1000 μmol/L cinnamaldehyde in Ca2+ free solutions as % of the response in Ca2+ containing solutions: 18 ± 6%
TRPA1; EC50 of CGRP release, rat spinal cord homogenate, ELISA, mean ± SEM
  EC50: 54.8 ± 5.84 µM

## CC(=C\c1ccc(Cl)cc1)/C(C)=N/O [AP18]
TRPA1; 50 μmol/L AP18, 100 μmol/L AITC, dorsal homogenate
  AITC-induced CGRP release in the presence of AP18: 8 ± 5 % of 40 mmol/L KCl‐evoked release
TRPA1; 50 μmol/L AP18, 100 μmol/L cinnamaldehyde, dorsal homogenate
  cinnamaldehyde-evoked CGRP release in the presence of AP18: −1 ± 3 % of 40 mmol/L KCl‐evoked release
Spinal cord synaptosomes; 50 μmol/L AP18
  effect on CGRP release induced by 40 mmol/L and 60 mmol/L KCl: no effect

## ω‐conotoxin MVIIC
[2]
  depolarization-induced CGRP release in the presence of inhibitor: 73 ± 8 % of control 40 mmol/L KCl‐evoked release
[3]
  effect on 100 μmol/L cinnamaldehyde-induced CGRP release: not significantly altered; also recorded: not significantly affected

## [Cl-].[K+] [KCl]
Spinal cord synaptosomes; 40 mmol/L KCl, dorsal homogenate, morphine experiment, n = 4
  CGRP release evoked by 40 mmol/L KCl, absence of morphine: 77 ± 7 % over basal release
Spinal cord synaptosomes; 40 mmol/L KCl, dorsal spinal cord homogenate, dorsal/ventral experiment
  CGRP release over basal release: 67 ± 9 % over basal release
Spinal cord synaptosomes; 40 mmol/L KCl, ventral spinal cord homogenate
  CGRP release over basal release: 6 ± 4 % over basal release
Spinal cord synaptosomes; 60 mmol/L KCl, dorsal homogenate, morphine experiment, n = 4
  CGRP release evoked by 60 mmol/L KCl, absence of morphine: 131 ± 17 % over basal release
